The solubility is how much of the substance goes into solution per volume. High values mean much dissolved substance, low ones little dissolved substance. The term IC50 denotes the midpoint of a concentration-inhibition curve.

This note sets out measurements from ChEMBL document CHEMBL1153318, “Design of potent thiophene inhibitors of polo-like kinase 1 with improved solubility and reduced protein binding” (Bioorg Med Chem Lett, 2009).

Converted amounts (≈) assume the structure as drawn.

Series [1] can be described thus: Protein binding in human plasma at 2000 ng/mL after 6 hrs by equilibrium dialysis method. Format: ADME, cell-free. To be noted: read-out: PPB (converted). On the technique in general: In equilibrium dialysis only unbound substance equilibrates across the membrane.
Series [2] in a line: Solubility in 0.05 M phosphate buffer at 200 uM at pH 7.4 after 15 mins by HPLC. It counts as physicochemical.
Series [3] relates to HCT-116. The experiment in a line: cells. To be noted: Homo sapiens, HCT-116, 72 h.
Description: Antiproliferative activity against human HCT116 cells after 72 hrs by luminescence-based cell viability assay
In series [4] the target is Serine/threonine-protein kinase PLK3 (Homo sapiens, UniProt Q9H4B4). In words: biochemical.
Description: Inhibition of full length human PLK3 expressed in baculovirus-infected Trichoplusia ni cells by scintillation proximity assay
Series [5] deals with T1, Phosphatidylinositol 4,5-bisphosphate 3-kinase catalytic subunit delta isoform (Homo sapiens, UniProt O00329).
T1 sequence (O00329 whole entry): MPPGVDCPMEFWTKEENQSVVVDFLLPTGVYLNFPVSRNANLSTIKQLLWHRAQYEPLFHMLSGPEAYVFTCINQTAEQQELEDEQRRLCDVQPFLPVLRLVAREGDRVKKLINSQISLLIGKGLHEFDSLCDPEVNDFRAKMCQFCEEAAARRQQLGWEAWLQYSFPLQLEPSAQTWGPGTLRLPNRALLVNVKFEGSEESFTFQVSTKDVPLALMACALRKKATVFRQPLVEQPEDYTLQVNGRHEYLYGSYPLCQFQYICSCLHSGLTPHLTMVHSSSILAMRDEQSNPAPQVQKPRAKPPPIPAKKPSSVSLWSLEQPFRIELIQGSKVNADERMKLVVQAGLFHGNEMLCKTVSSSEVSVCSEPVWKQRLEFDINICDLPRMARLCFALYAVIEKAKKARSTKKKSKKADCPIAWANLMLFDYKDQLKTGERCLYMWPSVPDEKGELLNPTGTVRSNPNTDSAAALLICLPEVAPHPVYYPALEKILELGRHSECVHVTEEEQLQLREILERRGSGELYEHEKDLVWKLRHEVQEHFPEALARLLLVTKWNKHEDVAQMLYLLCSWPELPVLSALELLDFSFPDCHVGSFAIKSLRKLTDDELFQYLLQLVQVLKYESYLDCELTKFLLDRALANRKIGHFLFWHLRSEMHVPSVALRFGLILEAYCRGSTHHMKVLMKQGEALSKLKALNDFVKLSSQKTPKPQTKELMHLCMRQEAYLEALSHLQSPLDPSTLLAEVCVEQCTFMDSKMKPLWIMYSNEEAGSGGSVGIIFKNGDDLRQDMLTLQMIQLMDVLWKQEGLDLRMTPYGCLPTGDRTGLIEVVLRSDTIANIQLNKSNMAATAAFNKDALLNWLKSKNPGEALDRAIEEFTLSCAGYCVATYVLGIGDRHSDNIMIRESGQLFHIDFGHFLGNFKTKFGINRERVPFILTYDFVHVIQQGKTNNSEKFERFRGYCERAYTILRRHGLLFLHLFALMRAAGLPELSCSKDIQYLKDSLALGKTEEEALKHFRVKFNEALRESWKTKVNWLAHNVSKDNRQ
In words: Inhibition of human PI3Kdelta.

Series [6] has as its system SK-OV-3. In words: Antiproliferative activity against human SKOV3 cells after 72 hrs by luminescence-based cell viability assay. Format: functional. To be noted: SK-OV-3, 72 h.
The target of series [7] is Platelet-derived growth factor receptor beta (Homo sapiens, UniProt P09619). In words: Inhibition of human PDGFR1beta.
In series [8] the target is Vascular endothelial growth factor receptor 2 (Homo sapiens, UniProt P35968). In words: Inhibition of human VEGFR2.
Series [9] has as its system MX1. The experiment in a line: Antiproliferative activity against human MX1 cells after 72 hrs by luminescence-based cell viability assay. The note with it: MX1, 72 h. Format: functional.
Series [10] addresses Serine/threonine-protein kinase pim-1 (Homo sapiens, UniProt P11309). In words: Inhibition of human PIM1.
Series [11] addresses T2, NUAK family SNF1-like kinase 1 (Homo sapiens, UniProt O60285).
T2 sequence (O60285 whole entry): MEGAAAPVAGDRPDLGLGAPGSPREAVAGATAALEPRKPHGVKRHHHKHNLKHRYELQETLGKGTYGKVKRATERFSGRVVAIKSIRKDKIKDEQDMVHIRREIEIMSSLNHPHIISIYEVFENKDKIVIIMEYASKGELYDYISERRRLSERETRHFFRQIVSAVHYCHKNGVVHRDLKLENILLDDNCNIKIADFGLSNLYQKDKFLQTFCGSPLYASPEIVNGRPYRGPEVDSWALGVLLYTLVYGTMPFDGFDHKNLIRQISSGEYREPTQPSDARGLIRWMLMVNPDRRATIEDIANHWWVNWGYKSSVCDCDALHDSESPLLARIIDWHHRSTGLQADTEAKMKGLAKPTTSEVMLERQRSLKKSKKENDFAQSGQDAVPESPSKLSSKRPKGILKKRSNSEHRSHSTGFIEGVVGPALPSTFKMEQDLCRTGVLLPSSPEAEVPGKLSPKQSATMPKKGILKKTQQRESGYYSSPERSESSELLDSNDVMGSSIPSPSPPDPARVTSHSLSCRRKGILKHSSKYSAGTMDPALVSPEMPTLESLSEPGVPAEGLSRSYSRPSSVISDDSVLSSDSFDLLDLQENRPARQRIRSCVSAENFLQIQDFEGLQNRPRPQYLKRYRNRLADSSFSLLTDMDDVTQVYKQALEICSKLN
In words: Inhibition of human Nuak1.

The subject of series [12] is HT-29. The experiment in a line: Antiproliferative activity against human HT-29 cells after 72 hrs by luminescence-based cell viability assay. It counts as functional. To be noted: HT-29, 72 h.
In series [13] the test system is A549. The experiment in a line: Antiproliferative activity against human A549 cells after 72 hrs by luminescence-based cell viability assay. The note with it: A549, 72 h. It counts as functional.
The target in series [14] is T3, Serine/threonine-protein kinase Nek2 (Homo sapiens, UniProt P51955).
T3 sequence (P51955 whole entry): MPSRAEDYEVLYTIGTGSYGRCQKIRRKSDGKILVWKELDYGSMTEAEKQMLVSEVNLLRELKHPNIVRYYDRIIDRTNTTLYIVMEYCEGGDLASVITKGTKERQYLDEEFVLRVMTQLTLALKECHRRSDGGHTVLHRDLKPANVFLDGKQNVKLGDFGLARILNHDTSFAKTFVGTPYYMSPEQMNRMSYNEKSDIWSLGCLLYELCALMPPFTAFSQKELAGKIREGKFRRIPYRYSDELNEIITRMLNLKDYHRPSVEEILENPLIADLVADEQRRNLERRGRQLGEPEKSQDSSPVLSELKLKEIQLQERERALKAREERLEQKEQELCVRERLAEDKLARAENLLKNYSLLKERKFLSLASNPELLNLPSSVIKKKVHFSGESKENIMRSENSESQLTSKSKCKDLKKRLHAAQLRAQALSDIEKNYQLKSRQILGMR

In series [15] the test system is COLO 205. In words: Antiproliferative activity against human COLO205 cells after 72 hrs by luminescence-based cell viability assay. It counts as functional. The note with it: COLO 205, 72 h.
Series [16] concerns the target Serine/threonine-protein kinase PLK1 (Homo sapiens, UniProt P53350). In words: biochemical.
Description: Inhibition of human PLK1 kinase domain expressed in baculovirus-infected Trichoplusia ni cells by scintillation proximity assay
Series [17] has as its target Phosphatidylinositol 4,5-bisphosphate 3-kinase catalytic subunit gamma isoform (Homo sapiens, UniProt P48736). In words: Inhibition of human PI3Kgamma.

Serine/threonine-protein kinase PLK3, sequence (Q9H4B4 whole entry, canonical isoform): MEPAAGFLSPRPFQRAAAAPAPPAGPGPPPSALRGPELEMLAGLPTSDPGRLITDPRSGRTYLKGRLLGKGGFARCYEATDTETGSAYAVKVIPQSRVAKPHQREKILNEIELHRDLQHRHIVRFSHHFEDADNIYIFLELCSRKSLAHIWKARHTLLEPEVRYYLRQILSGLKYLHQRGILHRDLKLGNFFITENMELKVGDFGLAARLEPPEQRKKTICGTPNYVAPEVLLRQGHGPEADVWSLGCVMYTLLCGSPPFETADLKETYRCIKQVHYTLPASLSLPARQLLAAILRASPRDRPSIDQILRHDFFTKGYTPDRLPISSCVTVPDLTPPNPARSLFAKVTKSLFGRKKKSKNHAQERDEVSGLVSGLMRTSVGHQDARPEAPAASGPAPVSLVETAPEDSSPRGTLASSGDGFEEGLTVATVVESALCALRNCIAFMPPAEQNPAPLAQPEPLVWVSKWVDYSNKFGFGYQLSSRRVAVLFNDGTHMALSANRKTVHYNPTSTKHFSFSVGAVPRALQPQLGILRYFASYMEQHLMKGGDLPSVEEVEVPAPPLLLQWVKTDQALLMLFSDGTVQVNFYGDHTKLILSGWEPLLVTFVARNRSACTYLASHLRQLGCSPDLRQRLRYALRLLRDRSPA
Serine/threonine-protein kinase PLK1, sequence (P53350 whole entry, canonical isoform): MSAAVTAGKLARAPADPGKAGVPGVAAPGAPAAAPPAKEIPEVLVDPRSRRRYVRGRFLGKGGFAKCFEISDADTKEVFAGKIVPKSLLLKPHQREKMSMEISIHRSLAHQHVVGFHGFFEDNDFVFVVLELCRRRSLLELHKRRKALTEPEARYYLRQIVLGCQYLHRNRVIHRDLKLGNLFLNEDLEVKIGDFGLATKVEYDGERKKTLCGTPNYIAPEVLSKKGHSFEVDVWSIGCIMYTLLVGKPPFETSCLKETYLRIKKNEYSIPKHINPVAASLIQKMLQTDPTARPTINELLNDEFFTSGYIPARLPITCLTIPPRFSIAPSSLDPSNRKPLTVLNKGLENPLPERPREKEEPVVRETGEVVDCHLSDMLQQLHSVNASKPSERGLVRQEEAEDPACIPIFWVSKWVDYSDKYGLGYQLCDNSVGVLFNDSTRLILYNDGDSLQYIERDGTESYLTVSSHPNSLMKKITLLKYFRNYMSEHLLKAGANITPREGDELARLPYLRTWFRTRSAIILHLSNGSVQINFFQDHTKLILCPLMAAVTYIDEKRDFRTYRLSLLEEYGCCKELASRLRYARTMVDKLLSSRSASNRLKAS
Platelet-derived growth factor receptor beta, sequence (P09619 whole entry): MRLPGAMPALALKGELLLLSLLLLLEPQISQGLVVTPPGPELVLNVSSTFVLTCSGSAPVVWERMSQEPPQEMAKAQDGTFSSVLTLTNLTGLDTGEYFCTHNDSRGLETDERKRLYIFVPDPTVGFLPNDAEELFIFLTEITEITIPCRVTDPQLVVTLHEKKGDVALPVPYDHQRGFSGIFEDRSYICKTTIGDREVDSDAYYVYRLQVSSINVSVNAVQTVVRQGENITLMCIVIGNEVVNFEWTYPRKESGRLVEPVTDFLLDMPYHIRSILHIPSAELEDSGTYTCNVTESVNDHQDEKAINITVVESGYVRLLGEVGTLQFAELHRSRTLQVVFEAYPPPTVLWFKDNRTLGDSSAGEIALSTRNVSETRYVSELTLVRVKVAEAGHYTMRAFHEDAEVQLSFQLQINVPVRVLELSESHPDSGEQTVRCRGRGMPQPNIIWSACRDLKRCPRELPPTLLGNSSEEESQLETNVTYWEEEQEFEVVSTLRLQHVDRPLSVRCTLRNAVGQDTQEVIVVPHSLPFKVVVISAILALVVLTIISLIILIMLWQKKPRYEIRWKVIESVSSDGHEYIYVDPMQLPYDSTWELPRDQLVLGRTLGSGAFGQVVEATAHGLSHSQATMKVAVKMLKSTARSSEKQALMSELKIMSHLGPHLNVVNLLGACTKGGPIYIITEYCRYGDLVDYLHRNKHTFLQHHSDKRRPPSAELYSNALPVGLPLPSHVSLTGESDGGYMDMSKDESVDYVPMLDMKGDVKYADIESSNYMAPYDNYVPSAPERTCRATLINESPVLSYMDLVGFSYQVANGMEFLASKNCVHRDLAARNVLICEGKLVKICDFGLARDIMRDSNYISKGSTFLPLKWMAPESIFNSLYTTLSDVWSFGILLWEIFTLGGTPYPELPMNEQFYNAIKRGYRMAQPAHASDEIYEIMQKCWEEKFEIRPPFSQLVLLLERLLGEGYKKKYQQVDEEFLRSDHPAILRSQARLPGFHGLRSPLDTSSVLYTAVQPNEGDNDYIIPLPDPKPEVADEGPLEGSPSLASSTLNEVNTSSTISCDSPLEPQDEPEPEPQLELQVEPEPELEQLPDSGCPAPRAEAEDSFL
Serine/threonine-protein kinase pim-1, sequence (P11309 whole entry): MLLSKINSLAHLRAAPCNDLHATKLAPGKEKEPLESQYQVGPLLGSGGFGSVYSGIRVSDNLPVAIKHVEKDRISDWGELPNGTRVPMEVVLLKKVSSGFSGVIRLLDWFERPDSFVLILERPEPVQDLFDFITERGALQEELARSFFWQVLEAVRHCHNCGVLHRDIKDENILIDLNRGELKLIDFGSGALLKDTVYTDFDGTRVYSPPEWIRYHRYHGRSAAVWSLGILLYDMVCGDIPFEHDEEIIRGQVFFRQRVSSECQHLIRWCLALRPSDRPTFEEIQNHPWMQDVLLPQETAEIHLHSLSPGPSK
Vascular endothelial growth factor receptor 2, sequence (P35968 whole entry): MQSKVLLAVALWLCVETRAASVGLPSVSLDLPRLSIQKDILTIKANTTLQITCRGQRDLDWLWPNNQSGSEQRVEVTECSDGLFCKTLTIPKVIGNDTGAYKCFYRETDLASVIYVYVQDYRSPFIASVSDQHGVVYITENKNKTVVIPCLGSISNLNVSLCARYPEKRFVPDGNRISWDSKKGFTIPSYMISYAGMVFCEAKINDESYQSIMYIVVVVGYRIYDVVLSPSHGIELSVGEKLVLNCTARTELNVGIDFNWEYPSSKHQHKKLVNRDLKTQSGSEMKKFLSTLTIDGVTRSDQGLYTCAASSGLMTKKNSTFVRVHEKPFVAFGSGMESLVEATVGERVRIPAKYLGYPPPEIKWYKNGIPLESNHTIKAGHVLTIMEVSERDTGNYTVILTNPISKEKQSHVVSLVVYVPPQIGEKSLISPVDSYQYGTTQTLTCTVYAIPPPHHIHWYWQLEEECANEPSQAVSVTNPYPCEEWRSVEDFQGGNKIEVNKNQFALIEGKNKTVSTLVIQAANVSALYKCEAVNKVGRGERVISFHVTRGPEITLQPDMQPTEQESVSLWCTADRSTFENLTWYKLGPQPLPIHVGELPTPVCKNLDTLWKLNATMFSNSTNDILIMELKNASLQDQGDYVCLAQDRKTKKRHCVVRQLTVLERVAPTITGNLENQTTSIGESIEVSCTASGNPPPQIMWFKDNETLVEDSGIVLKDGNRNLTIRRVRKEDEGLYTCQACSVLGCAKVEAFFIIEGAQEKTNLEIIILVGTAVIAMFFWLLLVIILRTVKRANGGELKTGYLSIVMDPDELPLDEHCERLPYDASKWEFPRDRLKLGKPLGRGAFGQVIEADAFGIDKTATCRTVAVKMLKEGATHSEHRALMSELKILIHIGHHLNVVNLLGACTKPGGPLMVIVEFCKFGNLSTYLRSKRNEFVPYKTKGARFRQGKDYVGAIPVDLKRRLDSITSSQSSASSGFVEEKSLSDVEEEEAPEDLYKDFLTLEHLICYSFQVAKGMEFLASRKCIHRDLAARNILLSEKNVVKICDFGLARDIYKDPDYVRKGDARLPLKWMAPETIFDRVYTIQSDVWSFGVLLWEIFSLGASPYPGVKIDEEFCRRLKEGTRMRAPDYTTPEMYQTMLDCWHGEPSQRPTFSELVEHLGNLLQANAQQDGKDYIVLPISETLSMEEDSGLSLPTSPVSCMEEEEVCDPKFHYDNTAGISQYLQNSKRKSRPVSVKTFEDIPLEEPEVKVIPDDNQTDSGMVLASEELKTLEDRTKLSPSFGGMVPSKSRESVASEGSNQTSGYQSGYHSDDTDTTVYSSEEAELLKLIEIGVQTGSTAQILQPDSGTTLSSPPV

With `CC(Oc1cc(-n2cnc3ccc(O[C@@H]4CCCN(C)CC4)cc32)sc1C(N)=O)c1ccccc1Cl` (single isomer, unassigned), in [1], the fraction unbound at 6 h, 2000 ng/mL was 0.02. Also, in [2], the solubility at 0.25 h, 200 µM came out at 200 µM (≈ 105 µg/mL). In [3], this compound came in with an IC50 of 13 nM.

For `COc1cc2ncn(-c3cc(OCc4ccccc4Cl)c(C(N)=O)s3)c2cc1OC` [GW852849X], the IC50 in series [4] was determined as 9 nM; in [3], 1140 nM.

As for `CC(Oc1cc(-n2cnc3ccc(OC4CCN(C)CC4)cc32)sc1C(N)=O)c1ccccc1Cl` (single isomer, unassigned) [GSK-579289A], the IC50 in series [4] was determined as 630 nM; in series [5] it was 440 nM; in series [6], 11 nM; in series [7] it was 420 nM; in series [8] it was 1200 nM; in [3] it was 11 nM. Besides, the IC50 in series [9] is 9 nM; in series [10], 310 nM; in series [11], 2000 nM; in [12], 3 nM; in series [13], 11 nM; in [14], 21 nM. In series [15], this compound yielded an IC50 of 5 nM. For the same compound, the fraction unbound at 6 h, 2000 ng/mL in [1] was 0.085. The compound further showed a solubility at 0.25 h, 200 µM in series [2] of no less than 190 µM.

Regarding `CC(Oc1cc(-n2cnc3ccc(OC[C@@H](O)CO)cc32)sc1C(N)=O)c1ccccc1Cl` (single isomer, unassigned) [GSK-978744A], the figures for the IC50 in [4], in [16] and in series [3] were 61 nM, 1 nM and 73 nM, respectively. For the same compound, the concentration in solution in series [2] (solubility at 0.25 h, 200 µM) came to 15 µM (≈ 7.32 µg/mL).

As to `CC(Oc1cc(-n2cnc3ccc(OCCCN(C)C)cc32)sc1C(N)=O)c1ccccc1Cl` (single isomer, unassigned), in [1], the fraction unbound at 6 h, 2000 ng/mL was 0.026. In series [2], the concentration in solution (solubility at 0.25 h, 200 µM) was 161 µM (≈ 80.3 µg/mL). For the same compound, in [3], the IC50 was 32 nM.

As for `COc1cc2ncn(-c3cc(O[C@@H](C)c4ccccc4Cl)c(C(N)=O)s3)c2cc1OC` [GSK-237700A], the IC50 in series [4] is 44 nM; in series [3], 994 nM.

On to `COc1ccc2ncn(-c3cc(O[C@H](C)c4ccccc4C(F)(F)F)c(C(N)=O)s3)c2c1` [GSK-317315A], for which the IC50 came out at 41 nM in [4], 3 nM in series [16] and 476 nM in series [3]. Further, the fraction unbound at 6 h, 2000 ng/mL in [1] is 0.005. Besides, in series [2], the solubility at 0.25 h, 200 µM is 1 µM (≈ 0.461 µg/mL).

`CC(Oc1cc(-n2cnc3ccc(OCC4CCN(C)CC4)cc32)sc1C(N)=O)c1ccccc1C(F)(F)F` (single isomer, unassigned) [GSK-326090A]: the IC50 in [4] worked out at 550 nM; in series [16], 7 nM; in series [3] it was 30 nM. In addition, the fraction unbound at 6 h, 2000 ng/mL in series [1] is 0.023. Also, the solubility at 0.25 h, 200 µM in series [2] was 109 µM (≈ 60.9 µg/mL).

Regarding `CC(Oc1cc(-n2cnc3ccc(O[C@H]4CCCN(C)CC4)cc32)sc1C(N)=O)c1ccccc1Cl` (single isomer, unassigned), in [1], the fraction unbound at 6 h, 2000 ng/mL is 0.031. Also, the solubility at 0.25 h, 200 µM in [2] is no less than 200 µM. The same compound registered an IC50 in [3] of 17 nM.

For `C[C@@H](Oc1cc(-n2cnc3ccc(OC[C@H](O)CN4CCCC4)cc32)sc1C(N)=O)c1ccccc1Cl` (single isomer, unassigned), in series [1], the fraction unbound at 6 h, 2000 ng/mL is 0.038. For the same compound, the concentration in solution in series [2] (solubility at 0.25 h, 200 µM) was 170 µM (≈ 92 µg/mL). Also, half-maximal inhibition in [3] (IC50) was put at 45 nM.

Regarding `CC(Oc1cc(-n2cnc3ccc(OCC4CCN(C)CC4)cc32)sc1C(N)=O)c1ccccc1Cl` (single isomer, unassigned) [GSK-571989A], the IC50 was 1100 nM in series [4], 6 nM in series [16] and 34 nM in series [3]. For the same compound, in [1], the fraction unbound at 6 h, 2000 ng/mL is 0.021. Moreover, the solubility at 0.25 h, 200 µM in series [2] was no less than 172 µM.

For the compound `COc1cc2ncn(-c3cc(O[C@H](C)c4ccccc4Cl)c(C(N)=O)s3)c2cc1OC` [GSK-237701A], the IC50 in series [4] was determined as 6 nM; in series [3], 25 nM. This compound also showed a solubility at 0.25 h, 200 µM in [2] of 2 µM (≈ 0.916 µg/mL).

As for `CC(Oc1cc(-n2cnc3ccc(OC4CCN(C)CC4)cc32)sc1C(N)=O)c1ccccc1C(F)(F)F` (single isomer, unassigned), the IC50 was found to be 270 nM in series [4]; 530 nM in series [5]; 32 nM in [6]; 110 nM in series [7]; 390 nM in series [17]; 800 nM in series [8]. Besides, the IC50 in series [3] stood at 12 nM; in [9] it was 10 nM; in [10], 340 nM; in [11] it was 840 nM; in series [12], 3 nM; in series [13], 14 nM. Moreover, the figures for the IC50 in series [14] and in series [15] were 25 nM and 5 nM, respectively. Besides, the fraction unbound at 6 h, 2000 ng/mL in series [1] was 0.052. Besides, in series [2], the solubility at 0.25 h, 200 µM amounted to 179 µM (≈ 97.5 µg/mL).

Turning to `COc1ccc2ncn(-c3cc(O[C@H](C)c4ccccc4Cl)c(C(N)=O)s3)c2c1` [GSK-317314A], the values for the IC50 in series [4], in series [16] and in [3] were 35 nM, 1 nM and 321 nM, respectively. For the same compound, the fraction unbound at 6 h, 2000 ng/mL in series [1] was 0.005. This compound came in with a solubility at 0.25 h, 200 µM in series [2] of 3 µM (≈ 1.28 µg/mL).

Take `CC(Oc1cc(-n2cnc3ccc(OC4CCNCC4)cc32)sc1C(N)=O)c1ccccc1C(F)(F)F` (single isomer, unassigned): the fraction unbound at 6 h, 2000 ng/mL in series [1] is 0.034. The same compound registered a solubility at 0.25 h, 200 µM in series [2] of 104 µM (≈ 55.2 µg/mL). The compound also displayed an IC50 in series [3] of 15 nM.
